According to patent US9409905B2, “Antibacterial compounds and methods for use” (PTC THERAPEUTICS, INC., priority 2011, dated 2016):
Converted amounts (≈) assume the structure as drawn.

Experiments:
[1] = tested on: Escherichia coli (E. coli) BAS849; experiment: Antibacterial activity, microbroth dilution MIC (Table 1); assay type: cell-based; details: microbroth dilution, super sensitive Gram-negative E. coli BAS849, read-out: MIC, BAS849
Procedure, shortened: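 Values are MICs (μg/mL): the smallest drug amount at which macroscopically visible bacterial growth is absent under assay conditions, from a microdilution method in broth.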

[2] = tested on: Staphylococcus aureus (S. aureus) 29213; experiment: as above; assay type: cell-based; details: microbroth dilution, Gram-positive S. aureus 29213, read-out: MIC, 29213
Procedure, shortened: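 Read-out: visual absence of growth. The lowest concentration meeting this gives the MIC, expressed in μg/mL, with microbroth dilution as the method.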

[3] = tested on: E. coli 25922; experiment: as above; assay type: cell-based, Escherichia coli; details: Escherichia coli; microbroth dilution; control Gram-negative E. coli 25922 strain; read-out: MIC, 25922
Procedure, shortened: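 Broth microdilution; endpoint = no macroscopic growth; value = lowest inhibiting concn, μg/mL.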

[4] = tested on: E. coli LZ3111; experiment: Antibacterial activity, MIC, quinolone resistant strain (Table 2); assay type: cell-based; details: Escherichia coli, LZ3111, read-out: MIC LZ3111
Procedure, shortened: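 Growth inhibition assessed by serial drug dilution in broth; endpoint was absence of macroscopically visible growth, reported as MIC, μg/mL.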

SMILES | MIC [1] [µg/mL] | MIC [2] [µg/mL] | MIC [3] [µg/mL] | MIC [4] [µg/mL]
CCc1cc(C(=O)O)c(=O)[nH]c1-c1ccc2c(c1)cc(CN1C[C@H]3CCC[C@@H](N(C)C)[C@H]3C1)n2C [Cpd 149, 6-(2-(((3aR,4R,7aS)-4-(dimethylamino)-1H-isoindol-2(3H,3aH,4H,5H,6H,7H,7aH)-yl)methyl)-1-methyl-1H-indol-5-yl)-5-ethyl-2-oxo-1,2-dihydropyridine-3-carboxylic acid] | < 1 | 12.5 to 150 (≈ 26.2 to 315 µM) | 1 to 3.5 (≈ 2.1 to 7.34 µM) | 12.5 to 150 (≈ 26.2 to 315 µM)
CCc1cc(C(=O)O)c(=O)[nH]c1-c1ccc2c(c1)c(C#N)cn2C [Cpd 72, 6-(3-cyano-1-methyl-1H-indol-5-yl)-5-ethyl-2-oxo-1,2-dihydropyridine-3-carboxylic acid] | 3.5 to 12.5 (≈ 10.9 to 38.9 µM) | 12.5 to 150 (≈ 38.9 to 467 µM) | 12.5 to 150 (≈ 38.9 to 467 µM) | 12.5 to 150 (≈ 38.9 to 467 µM)
CCc1cc(C(=O)O)c(=O)[nH]c1-c1ccc2c(c1)cc(CN1C[C@H]3CCC[C@@H](NC)[C@H]3C1)n2C [Cpd 148, 5-ethyl-6-(1-methyl-2-(((3aR,4R,7aS)-4-(methylamino)-1H-isoindol-2(3H,3aH,4H,5H,6H,7H,7aH)-yl)methyl)-1H-indol-5-yl)-2-oxo-1,2-dihydropyridine-3-carboxylic acid] | 1 to 3.5 (≈ 2.16 to 7.57 µM) | 12.5 to 150 (≈ 27 to 324 µM) | 3.5 to 12.5 (≈ 7.57 to 27 µM) | 12.5 to 150 (≈ 27 to 324 µM)
CCc1c(-c2ccc3c(c2)cc(CNCCN)n3C)[nH]c(=O)c(C(=O)O)c1O [Cpd 205, 6-(2-((2-aminoethylamino)methyl)-1-methyl-1H-indol-5-yl)-5-ethyl-4-hydroxy-2-oxo-1,2-dihydropyridine-3-carboxylic acid] | 1 to 3.5 (≈ 2.6 to 9.1 µM) | 12.5 to 150 (≈ 32.5 to 390 µM) | 12.5 to 150 (≈ 32.5 to 390 µM) | 12.5 to 150 (≈ 32.5 to 390 µM)
CCc1cc(C(=O)O)c(=O)[nH]c1-c1cnc2[nH]ccc2c1 [Cpd 55, 5-ethyl-2-oxo-6-(1H-pyrrolo[2,3-b]pyridin-5-yl)-1,2-dihydropyridine-3-carboxylic acid] | 12.5 to 150 (≈ 44.1 to 529 µM) | 12.5 to 150 (≈ 44.1 to 529 µM) | 12.5 to 150 (≈ 44.1 to 529 µM) | 12.5 to 150 (≈ 44.1 to 529 µM)
CCc1c(-c2ccc3c(c2)cc(CN2CCC[C@H]2CNc2ccccc2)n3C)[nH]c(=O)c(C(=O)O)c1O [Cpd 266, (S)-5-ethyl-4-hydroxy-6-(1-methyl-2-((2-((phenylamino)methyl)pyrrolidin-1-yl)methyl)-1H-indol-5-yl)-2-oxo-1,2-dihydropyridine-3-carboxylic acid] | < 1 | < 1 | 12.5 to 150 (≈ 25 to 300 µM) | 12.5 to 150 (≈ 25 to 300 µM)
CCc1cc(C(=O)O)c(=O)[nH]c1-c1ccc2nccnc2c1 [Cpd 57, 5-ethyl-2-oxo-6-(quinoxalin-6-yl)-1,2-dihydropyridine-3-carboxylic acid] | 12.5 to 150 (≈ 42.3 to 508 µM) | 12.5 to 150 (≈ 42.3 to 508 µM) | 12.5 to 150 (≈ 42.3 to 508 µM) | 12.5 to 150 (≈ 42.3 to 508 µM)
CCc1cc(C(=O)O)c(=O)[nH]c1-c1ccc2c(ccn2CCO)c1 [Cpd 23, 5-ethyl-6-(1-(2-hydroxyethyl)-1H-indol-5-yl)-2-oxo-1,2-dihydropyridine-3-carboxylic acid] | < 1 | 12.5 to 150 (≈ 38.3 to 460 µM) | 3.5 to 12.5 (≈ 10.7 to 38.3 µM) | 12.5 to 150 (≈ 38.3 to 460 µM)
CCc1c(-c2ccc3c(c2)cc(CN(C)C2CC2)n3C)[nH]c(=O)c(C(=O)O)c1O.Cl [Cpd 212, 6-(2-((cyclopropyl(methyl)amino)methyl)-1-methyl-1H-indol-5-yl)-5-ethyl-4-hydroxy-2-oxo-1,2-dihydropyridine-3-carboxylic acid hydrochloride] | < 1 | 1 to 3.5 | 1 to 3.5 | 12.5 to 150
CCc1c(-c2ccc3nc(C)oc3c2)[nH]c(=O)c(C(=O)O)c1O [Cpd 12, 5-ethyl-4-hydroxy-6-(2-methylbenzo[d]oxazol-6-yl)-2-oxo-1,2-dihydropyridine-3-carboxylic acid] | 1 to 3.5 (≈ 3.18 to 11.1 µM) | 12.5 to 150 (≈ 39.8 to 477 µM) | 12.5 to 150 (≈ 39.8 to 477 µM) | 12.5 to 150 (≈ 39.8 to 477 µM)
CCc1c(-c2ccc3c(c2)cc(CN[C@H](C)c2ccccc2)n3C)[nH]c(=O)c(C(=O)O)c1O.Cl [Cpd 215, (R)-5-ethyl-4-hydroxy-6-(1-methyl-2-((1-phenylethylamino)methyl)-1H-indol-5-yl)-2-oxo-1,2-dihydropyridine-3-carboxylic acid hydrochloride] | < 1 | 1 to 3.5 | 1 to 3.5 | 12.5 to 150
CCc1cc(C(=O)O)c(=O)[nH]c1-c1ccc2c(c1)cc(CN1CC[C@H](N)C1)n2C [Cpd 126, (S)-6-(2-((3-aminopyrrolidin-1-yl)methyl)-1-methyl-1H-indol-5-yl)-5-ethyl-2-oxo-1,2-dihydropyridine-3-carboxylic acid] | 3.5 to 12.5 (≈ 8.87 to 31.7 µM) | 12.5 to 150 (≈ 31.7 to 380 µM) | 12.5 to 150 (≈ 31.7 to 380 µM) | 12.5 to 150 (≈ 31.7 to 380 µM)
